# Measurements reported in article PMC8279416, “Structural Fine-Tuning of Desmuramylpeptide NOD2 Agonists Defines Their In Vivo Adjuvant Activity” (Journal of Medicinal Chemistry, 2021).
# “And” between values parts separate entries of the source, which are not always exact repeats. Identical values can stand only once.
# Legend:
# NOD2 = target: T1, NOD2 (Homo sapiens, UniProt Q9HC29); test: HEK-Blue NOD2 cell line reporter assay (NF-κB-inducible SEAP); type: cell-based; details: HEK-Blue NOD2 cells, 18 h, mean ± SEM; for NOD2 activity at 2 μM (fold increase): NF-κB transcriptional (SEAP) activity relative to 0.1% DMSO; for EC50: 7 or 8 concentrations 1 nM to 20 μM
# T1 construct: host or cells: HEK-Blue NOD2 cells (HEK293-derived)
# Method: To determine the NOD2 agonistic potential of the synthesized desmuramylpeptides at the cellular level, we used the validated and commercially available HEK-Blue NOD2 cell line reporter assay. HEK-Blue NOD2 cells were first treated for 18 h with MDP, 1, or the novel desmuramylpeptides at 2 μM. The NF-κB transcriptional activity measured was normalized to that of the vehicle treated (0.1% DMSO) control HEK-Blue NOD2 cells.
# HEK-Blue NOD2 and NOD1 cell line reporter assays are derived from HEK293 cells by cotransfection of the hNOD2 or hNOD1 genes, respectively, and an NF-κB-inducible secreted embryonic alkaline phosphatase (SEAP) reporter gene. Following activation of NOD2 or NOD1, the resulting NF-κB induces production of SEAP, the levels of which can be quantified colorimetrically. […] After 18 h of incubation (37 °C, 5% CO2), secreted embryonic alkaline phosphatase (SEAP) activity was determined spectrophotometrically as absorbance at 630 nm (BioTek Synergy microplate reader; Winooski, VT, U.S.A.). EC50 values were calculated using Prism software (version 9; GraphPad Software, CA, U.S.A.). For determination of specificity, HEK-Blue NOD2 cells (2.5 × 10^5 cells/mL) were first pretreated for 1 h with a 10 μM NOD2 antagonist, before the addition of the compounds (2 μM), with incubation for 18 h. SEAP activity in the supernatants was determined as above. The experiments were run in duplicate and repeated as at least two independent biological replicates.
# NIH/OlaHsd mice [1] = test: In vivo ovalbumin-specific antibody response, first experiment (neutral liposomes); set-up: species or system mouse; details: for Log10 (anti-OVA IgG1/anti-OVA IgG2a): first in vivo experiment, one week after the booster dose, mean ± SEM of 5 mice; for Ovalbumin-specific IgG1 response (in words) / Ovalbumin-specific IgG2a response (in words) / Adjuvant activity: ovalbumin-specific IgG (in words): neutral liposomes, 0.30 μmol adjuvant per dose, 1 week after booster; for Adjuvant activity: ovalbumin-specific IgG (in words): s.c.
# Method: To determine whether enhanced antigen presentation in vitro is correlated to in vivo adjuvant activities, an immunization study was performed in a murine model of adjuvanticity. Specifically, the selected desmuramylpeptides were investigated for induction of systemic immune responses against the model antigen ovalbumin. Seven groups of NIH/OlaHsd mice were immunized with ovalbumin-containing neutral liposomes, either alone or with additional adjuvants of MDP or the desmuramylpeptides 1, 68, 74, 75, or 81. After immunization and one booster dose, the mice sera were collected and assayed for ovalbumin-specific IgG antibodies (Figure 10).
# (§1) Multilamellar liposomes were prepared by the modified thin lipid film method as described previously.[130],[131] For the preparation of neutral liposomes, a 7:5 molar ratio of egg-phosphatidylcholine and cholesterol was used. For the preparation of negatively charged liposomes, a 7:5:1 molar ratio of egg-phosphatidylcholine, cholesterol, and dicetylphosphate was used, while a 7:5:0.5 molar ratio of egg-phosphatidylcholine, cholesterol, and Man-PEG-Pam was used in the preparation of mannosylated liposomes. Lipids (total lipid concentration, 4 mg/mL) were dissolved in chloroform/methanol (2:1). A methanol or chloroform/methanol solution of MDP or the desmuramylpeptides was added to the lipid solution for a final concentration of 2 mM and 1.5 mM for the first (Figure 10) and second (Figure 11) experiments, respectively. After rotary evaporation of the solvent, the remaining lipid film was dried in vacuum for 1 h and then dispersed by gentle handshaking in an ovalbumin solution in saline (0.0667 and 0.1 mg/mL for the first and second experiments, respectively). This was then left overnight at 4 °C to swell and stabilize. Liposome size was reduced by sonification. Nonentrapped material was not separated from liposomes, and the complete liposome suspension was used for immunizations.
# (§2) For the first experiment (Figure 10), sex-matched NIH/OlaHsd mice (five per group) were immunized subcutaneously in the tail base and boosted one time after 21 days. The injection volume in all experimental groups was 0.15 mL per mouse, which corresponds to 10 μg of OVA, […], and 0.30 μmol of MDP and desmuramylpeptides. For the second experiment (Figure 11), sex-matched NIH/OlaHsd mice (five per group) were immunized and boosted two times subcutaneously into the tail base at 21-day intervals. The injection volume in all experimental groups was 0.1 mL per mouse, which corresponds to 10 μg of OVA, 400 μg of lipids, and 0.15 μmol of MDP and 75. The mice were anesthetized with ip application of ketamine/xylazine (25 mg/kg each) prior to blood collection from the axillary plexus on the seventh day after the last booster dose. Individual serum from each animal was decomplemented at 56 °C for 30 min and then stored at −20 °C until tested.
# (§3) ELISA assays were performed as detailed previously.[46] Briefly, high-binding ELISA plates (Costar, U.S.A.) were coated with a 15 μg/mL solution of ovalbumin in carbonate buffer, pH 9.6, and incubated overnight at room temperature. Nonspecific antibody binding was blocked with 0.5% w/v bovine serum albumin in PBS-T (0.05% (v/v) Tween 20 in phosphate-buffered saline) for 2 h at 37 °C. After washing, five serial dilutions of mice sera and standard preparations were added in duplicate. Plates were incubated overnight at room temperature, washed, and analyzed for ovalbumin-specific IgG levels by incubation with HRP-conjugated goat anti-mouse IgG (2 h at 37 °C) and then, after washing, with 0.6 mg/mL o-phenylenediaminedihydrochloride solution in citrate-phosphate buffer, pH 5.0, with 0.5 μL of 30% H2O2 per milliliter for 30 min at room temperature in the dark. The enzymatic reaction was stopped with 12.5% H2SO4, and absorbance at 492 nm was measured using a microplate reader (Thermo Fisher Scientific, Waltham, MA, U.S.A.). […]
# NIH/OlaHsd mice [2] = test: In vivo ovalbumin-specific antibody response, second experiment (neutral, anionic, mannosylated liposomes); set-up: species or system mouse; details: for Ovalbumin-specific IgG response (in words): 0.15 μmol adjuvant per dose; for Log10 (anti-OVA IgG1/anti-OVA IgG2a): second in vivo experiment, 0.15 μmol adjuvant, one week after second booster, mean ± SEM of 5 mice
# Method: To determine whether the adjuvanticity of 75 can be modulated through changes to the liposomal formulation, a second in vivo experiment was designed in which the adjuvant activities of three different liposomal compositions were compared. Neutral liposomes were prepared from egg phosphatidylcholine and cholesterol.
# as §1, §2
# as §3, with “U.S.A.). For the determination of ovalbumin-specific IgG1 and IgG2a, the plates were incubated with biotin-conjugated rat anti-mouse IgG1 or IgG2a (2 h at 37 °C) and subsequently with streptavidin–peroxidase for another 2 h at 37 °C. After washing, the substrate solution was added and incubated for 30 min at room temperature in the dark, as described above.” for “U.S.A.).”
# human PBMCs = test: Cytokine release from peripheral blood mononuclear cells (cytometric bead array); type: cell-based; details: 2 μM, 18 h, without LPS
# Method: The immunostimulatory effects of the selected desmuramylpeptides were evaluated using human primary peripheral blood mononuclear cells (PBMCs). This heterogeneous mixture of immune cells allowed the study of the effects of these NOD2 agonists in a physiologically relevant system, where other NOD2-interacting and downstream signaling proteins were present. The effects of desmuramylpeptides were first determined for the secreted cytokine profile using a cytometric bead array cytokine kit. Moreover, considering that activation of NOD2 is also an important amplification signal for Toll-like receptor (TLR)-induced inflammatory responses,[79]−[81] we also examined the effects on cytokine secretion of the combination of desmuramylpeptides with LPS, a well-known TLR4 agonist.
# In line with previous studies, the effects of MDP and the desmuramylpeptides were most pronounced for the induction of the chemokine IL-8.[82]
# Peripheral blood mononuclear cells were seeded (1 × 10^6 cells/mL) in 48-well plates in 500 μL of growth medium and treated with the compounds (2 μM) or with the corresponding vehicle (0.1% DMSO) in the absence and presence of LPS (10 ng/mL). Cell-free supernatants were collected after 18 h of incubation (37 °C, 5% CO2) and stored at −80 °C until tested. Cytokine production was determined with the BD Cytometric Bead Array Human Inflammatory Cytokines Kit (contents: IL-8, IL-1β, IL-6, IL-10, TNF, IL-12p70; BD Bioscience) on an Attune NxT flow cytometer (Thermo Fisher Scientific, Waltham, MA, U.S.A.). Standard curves were generated using recombinant cytokines contained in the kit. The data were analyzed using the FlowJo (Tree Star, Inc., Ashland, OR, U.S.A.) and Prism (GraphPad, San Diego, CA, U.S.A.) software. The experiments were repeated as four independent biological replicates. Statistical significance was determined by repeated measures one-way ANOVA followed with Dunnett’s multiple comparisons test.
# [3] = set-up: method as in PMID 29543461; details: earlier work of the group; cited from earlier work
# T1 sequence (Q9HC29 whole entry): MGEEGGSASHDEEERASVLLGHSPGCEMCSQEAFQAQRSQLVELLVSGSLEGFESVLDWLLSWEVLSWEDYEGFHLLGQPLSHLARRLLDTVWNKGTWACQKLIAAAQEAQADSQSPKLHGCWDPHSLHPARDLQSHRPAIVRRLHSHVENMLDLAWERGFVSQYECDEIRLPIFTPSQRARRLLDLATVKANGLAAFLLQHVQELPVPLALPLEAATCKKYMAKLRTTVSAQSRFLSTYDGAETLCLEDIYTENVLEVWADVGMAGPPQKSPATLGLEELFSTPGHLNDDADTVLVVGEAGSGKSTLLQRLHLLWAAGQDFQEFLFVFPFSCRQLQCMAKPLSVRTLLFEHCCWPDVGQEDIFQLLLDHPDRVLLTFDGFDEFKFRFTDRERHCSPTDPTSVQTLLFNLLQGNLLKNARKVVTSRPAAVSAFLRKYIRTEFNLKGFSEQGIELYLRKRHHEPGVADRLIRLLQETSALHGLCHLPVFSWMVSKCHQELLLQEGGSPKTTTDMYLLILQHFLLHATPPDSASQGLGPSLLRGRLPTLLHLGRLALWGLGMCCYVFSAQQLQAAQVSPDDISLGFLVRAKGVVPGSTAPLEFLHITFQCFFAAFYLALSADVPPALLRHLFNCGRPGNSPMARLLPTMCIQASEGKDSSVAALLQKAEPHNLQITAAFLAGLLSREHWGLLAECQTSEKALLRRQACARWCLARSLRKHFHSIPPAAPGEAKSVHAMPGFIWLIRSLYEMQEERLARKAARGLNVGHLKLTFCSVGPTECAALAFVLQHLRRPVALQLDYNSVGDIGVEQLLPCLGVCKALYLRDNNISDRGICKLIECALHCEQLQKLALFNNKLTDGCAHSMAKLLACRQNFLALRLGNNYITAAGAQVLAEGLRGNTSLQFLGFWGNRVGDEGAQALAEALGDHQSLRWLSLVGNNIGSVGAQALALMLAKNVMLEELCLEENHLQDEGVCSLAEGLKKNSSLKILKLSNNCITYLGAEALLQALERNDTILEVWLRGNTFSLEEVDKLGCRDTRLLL
EC50 (NOD2) [nM],Structure (SMILES),NOD2 activity at 2 μM (fold increase) (NOD2),Log10 (anti-OVA IgG1/anti-OVA IgG2a) (NIH/OlaHsd mice [1]),Ovalbumin-specific IgG1 response (in words) (NIH/OlaHsd mice [1]),Ovalbumin-specific IgG2a response (in words) (NIH/OlaHsd mice [1]),Adjuvant activity: ovalbumin-specific IgG (in words) (NIH/OlaHsd mice [1]),"Ovalbumin-specific IgG2a response (in words) (NIH/OlaHsd mice [2]; all liposomal compositions, compared to liposomes without adjuvant)",Ovalbumin-specific IgG response (in words) (NIH/OlaHsd mice [2]; mannosylated liposomes),Ovalbumin-specific IgG response (in words) (NIH/OlaHsd mice [2]; negatively charged liposomes),Ovalbumin-specific IgG response (in words) (NIH/OlaHsd mice [2]; neutral liposomes),Log10 (anti-OVA IgG1/anti-OVA IgG2a) (NIH/OlaHsd mice [2]; anionic liposomes),Log10 (anti-OVA IgG1/anti-OVA IgG2a) (NIH/OlaHsd mice [2]; mannosylated liposomes),Log10 (anti-OVA IgG1/anti-OVA IgG2a) (NIH/OlaHsd mice [2]; neutral liposomes),"Induction of cytokines IL-1β, IL-6, IL-8 and TNF-α, compound alone (human PBMCs)",Pyrogenicity [3]
148 ± 26,"CC(=O)N[C@H]1C(O)O[C@H](CO)[C@@H](O)[C@@H]1O[C@H](C)C(=O)N[C@@H](C)C(=O)N[C@H](CCC(=O)O)C(N)=O (stereo partly shown) [MDP, muramyl dipeptide, reference compound]",2.83 fold increase and 2.83 ± 0.16 fold increase,2.43 ± 0.25,significant increases in IgG1 generation,only marginal increases in IgG2a,moderately enhanced,remained unchanged,strongest immunogenicity,stronger IgG response,weakest adjuvant activities,2.85 ± 0.10,2.48 ± 0.19,3.02 ± 0.17,–,–
30 ± 5,"CCCCCCCCCCCC(=O)Oc1ccc(/C=C/C(=O)NCC(=O)N[C@H](C(=O)N[C@H](CCC(=O)OCC)C(=O)OCC)C(C)C)cc1OC [Compound 74, Diethyl ((E)-3-(4-(Dodecanoyloxy)-3-methoxyphenyl)acryloyl)glycyl-L-valyl-D-glutamate]",3.17 ± 0.03 fold increase,2.90 ± 0.39,–,slight suppression of the IgG2a response,–,–,–,–,–,–,–,–,induced small increases in the levels of all four of these cytokines,–
–,CCOC(=O)CC[C@@H](NC(=O)[C@@H](NC(=O)CNC(=O)/C=C/c1ccc(O)c(OC)c1)C(C)C)C(=O)OCC [Compound 1],–,1.68 ± 0.06,largely IgG1-based response,–,only marginal adjuvant activity,–,–,–,–,–,–,–,–,devoid of pyrogenicity

Structure (SMILES),EC50 (NOD2) [nM],NOD2 activity at 2 μM (fold increase) (NOD2),Log10 (anti-OVA IgG1/anti-OVA IgG2a) (NIH/OlaHsd mice [1]),Ovalbumin-specific IgG1 response (in words) (NIH/OlaHsd mice [1]),Ovalbumin-specific IgG2a response (in words) (NIH/OlaHsd mice [1]),Adjuvant activity: ovalbumin-specific IgG (in words) (NIH/OlaHsd mice [1]),"Ovalbumin-specific IgG2a response (in words) (NIH/OlaHsd mice [2]; all liposomal compositions, compared to liposomes without adjuvant)",Ovalbumin-specific IgG response (in words) (NIH/OlaHsd mice [2]; mannosylated liposomes),Ovalbumin-specific IgG response (in words) (NIH/OlaHsd mice [2]; negatively charged liposomes),Ovalbumin-specific IgG response (in words) (NIH/OlaHsd mice [2]; neutral liposomes),Log10 (anti-OVA IgG1/anti-OVA IgG2a) (NIH/OlaHsd mice [2]; anionic liposomes),Log10 (anti-OVA IgG1/anti-OVA IgG2a) (NIH/OlaHsd mice [2]; mannosylated liposomes),Log10 (anti-OVA IgG1/anti-OVA IgG2a) (NIH/OlaHsd mice [2]; neutral liposomes),"Induction of cytokines IL-1β, IL-6, IL-8 and TNF-α, compound alone (human PBMCs)",Pyrogenicity [3]
"CCOC(=O)CC[C@@H](NC(=O)[C@@H](NC(=O)CNC(=O)/C=C/c1ccc(OC(C)=O)c(OC)c1)C(C)C)C(=O)OCC [Compound 73, Diethyl ((E)-3-(4-Acetoxy-3-methoxyphenyl)acryloyl)glycyl-L-valyl-D-glutamate]",62 ± 27,3.05 ± 0.03 fold increase,–,–,–,–,–,–,–,–,–,–,–,induced small increases in the levels of all four of these cytokines,–
